Results reported in publication PMC10637841, “Evaluation of Antioxidant and Anti-Inflammatory Activities, and Metabolite Profiling of Selected Medicinal Plants of Nepal” (Journal of Tropical Medicine, 2023).
Converted amounts (≈) assume the structure as drawn. Where two headings read alike, the source gives them in different places.

Tests used:
rats = system: rats; parameters: method as in PMID 32061742; settings: rats, 25, 50, and 100 mg/kg; ref [7]; cited from earlier work
[1] = system: human red blood cells (HRBC) membrane; experiment: HRBC membrane stabilization (heat-induced hemolysis); type: cell-based; settings: Erythrocyte, read-out: HRBC membrane stabilization IC50
Method: (1) Erythrocyte Suspension. With few modifications, the erythrocyte suspension was prepared using the technique outlined by Pieroni et al.. Healthy human volunteers provided the blood sample, which was centrifuged for 10 minutes at 1500 rpm. The red blood cell (RBC) pallet was washed three times with PBS (pH 7.4) following centrifugation. The buffy coat and supernatant liquid were aspirated out following each wash. The RBCs were resuspended in PBS at a concentration of 20% (v/v). (2) Heat-Induced Hemolysis. The method explained by Gunathilake et al. was used to determine the heat-induced hemolysis with some modifications. […] Then, the mixture was incubated for 20 minutes at 54°C in the water bath with continuous shaking. The mixture was incubated and centrifuged at 2500 rpm for 3 minutes. By using a UV spectrophotometer, the absorbance of supernatant was measured at 540 nm. In the experiment, PBS will be used as blank.

[2] = Nitric oxide (NO) scavenging activity; type: biochemical; settings: ethanolic leaf extract 100-2000 μg/mL; mean ± SEM
Description: (§1) The antioxidant activity of twelve plant extracts was estimated by using various methods, including (2, 2-diphenyl-1-picrylhidrazyl) DPPH free radical scavenging activity, ferrous (Fe^2+) ion chelating agent, ferric (Fe^3+) ion reducing power, nitric oxide (NO^−) scavenging activity, hydroxyl radical scavenging activity, hydrogen peroxide scavenging activity, and total antioxidant activity.

[3] = Ferric (Fe3+) ion reducing power; type: biochemical; settings: ethanolic leaf extract 100-2000 μg/mL; mean ± SEM
Method: as §1
The ferric ion-reducing antioxidant power assay of twelve plant extracts was carried out. The activity was confirmed when the color of the solution was changed from yellow to green and Prussian blue based on the reduction property of extracts and standard, which was measured at 700 nm wavelength using a UV spectrophotometer. The absorbance value was increased with the increasing concentration of plant extract (Table 4).

[4] = Total antioxidant activity (phosphomolybdenum); type: biochemical; settings: ethanolic leaf extract 100-2000 μg/mL; mean ± SEM
Description: as §1

[5] = Hydrogen peroxide scavenging activity; type: biochemical; settings: ethanolic leaf extract 100-2000 μg/mL; mean ± SEM
Description: as §1

[6] = DPPH free radical scavenging activity; type: biochemical; settings: ethanolic leaf extract 100-2000 μg/mL; mean ± SEM
Description: as §1

[7] = Hydroxyl radical scavenging activity; type: biochemical; settings: ethanolic leaf extract 100-2000 μg/mL; mean ± SEM
Description: as §1

[8] = Ferrous (Fe2+) ion chelating activity; type: biochemical; settings: ethanolic leaf extract 100-2000 μg/mL; mean ± SEM
Description: as §1

[9] = ethanolic leaf extract 100-2000 μg/mL

SMILES: C=C1CC[C@@H]2[C@](C)(CO)[C@H](O)CC[C@@]2(C)[C@@H]1C/C=C1/C(=O)OC[C@H]1O [andrographolide]
- Concentration of catalase, superoxide dismutase, and glutathione (antioxidant enzymes) (rats): increase
- Level of articular elastase, TNF-α, IL-6, CXC chemokine ligand 2, and myeloperoxidase (rats): decrease

SMILES: Cc1ccc(-c2ncc(Cl)cc2-c2ccc(S(C)(=O)=O)cc2)cn1 [Etoricoxib, etoricoxib]
- IC50 [1, 9]: 11 ± 1.65 µg/mL (≈ 30.6 µM)

SMILES: COc1ccc2c(c1)c(CC(=O)O)c(C)n2C(=O)c1ccc(Cl)cc1 [Indomethacin, indomethacin]
- IC50 [1]: 7.14 ± 0.31 µg/mL (≈ 20 µM)

SMILES: O=C(O)COC(=O)Cc1ccccc1Nc1c(Cl)cccc1Cl [Aceclofenac, aceclofenac]
- IC50 [1, 9]: 21.9 ± 2.34 µg/mL (≈ 61.8 µM)

SMILES: CC(=O)Oc1ccccc1C(=O)O [Aspirin, aspirin]
- IC50 [1, 9]: 21.3 ± 0.43 µg/mL (≈ 118 µM)

SMILES: COc1ccc(O)c(C(C)(C)C)c1 [BHA, Butylated Hydroxyl Annisole]
- Nitric oxide scavenging IC50 [2]: 5.58 ± 0.68 µg/mL
- Ferric reducing IC50 [3]: 3.02 ± 0.30 µg/mL

SMILES: O=C1O[C@H]([C@@H](O)CO)C(O)=C1O [Ascorbic acid]
- Total antioxidant activity IC50 [4]: 2.87 ± 0.10 µg/mL
- Nitric oxide scavenging IC50 [2]: 3.91 ± 0.80 µg/mL
- H2O2 scavenging IC50 [5]: 3.31 ± 0.58 µg/mL
- DPPH scavenging IC50 [6]: 4.54 ± 0.98 µg/mL
- Ferric reducing IC50 [3]: 2.47 ± 0.40 µg/mL
- Hydroxyl radical scavenging IC50 [7]: 4.75 ± 0.43 µg/mL
- Ferrous ion chelating IC50 [8]: 3.68 ± 0.59 µg/mL

SMILES: Cc1cc(C(C)(C)C)c(O)c(C(C)(C)C)c1 [BHT, Butylated Hydroxyl Toulene]
- H2O2 scavenging IC50 [5]: 2.89 ± 0.32 µg/mL
- DPPH scavenging IC50 [6]: 2.90 ± 0.51 µg/mL
- Hydroxyl radical scavenging IC50 [7]: 2.90 ± 0.98 µg/mL
- Ferrous ion chelating IC50 [8]: 2.81 ± 0.82 µg/mL
